Patent publication US11497212B2, “Substituted thiophenyl uracils, salts thereof and the use thereof as herbicidal agents” (Syngenta Crop Protection AG, priority 2017, dated 2022)

Key:
Type in all cases: in vivo
Abutilon theophrasti [1] = test: Herbicidal action post-emergence (greenhouse pot trial); conditions: application rate 80 g/ha, scored visually after about 3 weeks vs untreated controls
How it was run: (§1)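 Foliar application post-emergence; water volume 600 L/ha, additive 0.5%, dose ≤80 g/ha. Scoring: visual, ~3 wk, relative to untreated (0–100%).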

Alopecurus myosuroides [2] = test: as above; conditions: application rate 80 g/ha, scored visually after about 3 weeks vs untreated controls
How it was run: as §1

Amaranthus retroflexus [3] = test: as above; conditions: application rate 80 g/ha, scored visually after about 3 weeks vs untreated controls
How it was run: as §1

Echinochloa crus-galli [4] = test: as above; conditions: application rate 80 g/ha, scored visually after about 3 weeks vs untreated controls
How it was run: as §1

Lolium rigidum [5] = test: as above; conditions: application rate 80 g/ha, scored visually after about 3 weeks vs untreated controls
How it was run: as §1

Matricaria inodora [6] = test: as above; conditions: application rate 80 g/ha, scored visually after about 3 weeks vs untreated controls
How it was run: as §1

Pharbitis purpurea [7] = test: as above; conditions: application rate 80 g/ha
How it was run: as §1

Polygonum convolvulus = test: as above; conditions: application rate 80 g/ha, scored visually after about 3 weeks vs untreated controls
How it was run: as §1

Setaria viridis [8] = test: as above; conditions: application rate 80 g/ha, scored visually after about 3 weeks vs untreated controls
How it was run: as §1

Stellaria media [9] = test: as above; conditions: application rate 80 g/ha, scored visually after about 3 weeks vs untreated controls
How it was run: as §1

Veronica persica [10] = test: as above; conditions: application rate 80 g/ha
How it was run: as §1

Viola tricolor [11] = test: as above; conditions: application rate 80 g/ha
How it was run: as §1

Glycine max [12] = test: Crop compatibility post-emergence (greenhouse pot trial)
How it was run: (§2)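 Visual % damage vs untreated controls, ~3 wk post-spray (100% = plants died, 0% = as control). Plants in sandy loam, greenhouse, sprayed at one-leaf stage (2–3 wk after sowing); WP/EC in water + 0.5% additive, 600 L/ha.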

Oryza sativa [13] = test: as above; conditions: application rate 20 g/ha
How it was run: as §2

Triticum aestivum = test: as above; conditions: application rate 20 g/ha
How it was run: as §2

Zea mays [14] = test: as above
How it was run: as §2

Abutilon theophrasti [15] = test: Herbicidal action pre-emergence (greenhouse pot trial); conditions: application rate 320 g/ha, scored after about 3 weeks
How it was run: (§3)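 In this test the compounds, as suspensions or emulsions in water plus 0.5% additive, are sprayed onto the soil layer covering seeds at 320 g/ha or lower. Scoring happens visually after about three weeks under good greenhouse growth conditions.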

Alopecurus myosuroides [16] = test: as above; conditions: application rate 320 g/ha, scored after about 3 weeks
How it was run: as §3

Amaranthus retroflexus [17] = test: as above; conditions: application rate 320 g/ha, scored after about 3 weeks
How it was run: as §3

Avena fatua [18] = test: as above; conditions: application rate 320 g/ha
How it was run: as §3

Cyperus esculentus = test: as above; conditions: application rate 320 g/ha
How it was run: as §3

Echinochloa crus-galli [19] = test: as above; conditions: application rate 320 g/ha, scored after about 3 weeks
How it was run: as §3

Hordeum murinum [20] = test: as above; conditions: application rate 320 g/ha
How it was run: as §3

Lolium rigidum [21] = test: as above; conditions: application rate 320 g/ha
How it was run: as §3

Matricaria inodora [22] = test: as above; conditions: application rate 320 g/ha, scored after about 3 weeks
How it was run: as §3

Pharbitis purpurea [23] = test: as above; conditions: application rate 320 g/ha
How it was run: as §3

Setaria viridis [24] = test: as above; conditions: application rate 320 g/ha, scored after about 3 weeks
How it was run: as §3

Stellaria media [25] = test: as above; conditions: application rate 320 g/ha, scored after about 3 weeks
How it was run: as §3

Veronica persica [26] = test: as above; conditions: application rate 320 g/ha
How it was run: as §3

Viola tricolor [27] = test: as above; conditions: application rate 320 g/ha, scored after about 3 weeks
How it was run: as §3

Glycine max [28] = test: Crop compatibility pre-emergence (greenhouse pot trial); conditions: effect vs untreated controls
How it was run: (§4)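 Compounds, formulated as WP or EC plus 0.5% additive, applied to covering soil after sowing at a water rate of 600 L/ha. After roughly 3 weeks under greenhouse conditions, visual % injury to crops rated against untreated plants, 0% meaning like control.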

Oryza sativa [29] = test: as above; conditions: application rate 20 g/ha, effect vs untreated controls
How it was run: as §4

Zea mays [30] = test: as above; conditions: effect vs untreated controls
How it was run: as §4

Avena fatua [31] = test: Herbicidal action post-emergence (greenhouse pot trial); conditions: application rate 80 g/ha, scored visually after about 3 weeks vs untreated controls
How it was run: as §1

Hordeum murinum [32] = test: as above; conditions: application rate 80 g/ha, scored visually after about 3 weeks vs untreated controls
How it was run: as §1

Row | Triticum aestivum (Efficacy in %) (Triticum aestivum) | SMILES | Abutilon theophrasti (Efficacy in %) (Abutilon theophrasti [1]) | Amaranthus retroflexus (Efficacy in %) (Amaranthus retroflexus [3]) | Matricaria inodora (Efficacy in %) (Matricaria inodora [6]) | Pharbitis purpurea (Efficacy in %) (Pharbitis purpurea [7]) | Polygonum convolvulus (Efficacy in %) (Polygonum convolvulus) | Setaria viridis (Efficacy in %) (Setaria viridis [8]) | Stellaria media (Efficacy in %) (Stellaria media [9]) | Veronica persica (Efficacy in %) (Veronica persica [10]) | Viola tricolor (Efficacy in %) (Viola tricolor [11]) | Abutilon theophrasti (Efficacy in %) (Abutilon theophrasti [15]) | Alopecurus myosuroides (Efficacy in %) (Alopecurus myosuroides [16]) | Amaranthus retroflexus (Efficacy in %) (Amaranthus retroflexus [17]) | Avena fatua (Efficacy in %) (Avena fatua [18]) | Cyperus esculentus (Efficacy in %) (Cyperus esculentus) | Echinochloa crus-galli (Efficacy in %) (Echinochloa crus-galli [19]) | Hordeum murinum (Efficacy in %) (Hordeum murinum [20]) | Lolium rigidum (Efficacy in %) (Lolium rigidum [21]) | Matricaria inodora (Efficacy in %) (Matricaria inodora [22]) | Pharbitis purpurea (Efficacy in %) (Pharbitis purpurea [23]) | other results
1 | 20% | CC(Sc1cc(-n2c(=O)cc(C(F)(F)F)n(C)c2=O)c(F)cc1Cl)C(=O)NCC1CCCO1 (centres unmarked) [I.1-271] | 100% | 100% | 100% | 100% | 100% | 100% | 100% | 100% | 100% | 100% | 100% | 100% | 100% | 80% | 100% | 100% | 100% | 100% | 100% | Alopecurus myosuroides (Efficacy in %) (Alopecurus myosuroides [2]): 100%; Echinochloa crus-galli (Efficacy in %) (Echinochloa crus-galli [4]): 90%; Lolium rigidum (Efficacy in %) (Lolium rigidum [5]): 100%; Glycine max (Efficacy in %) (Glycine max [12]; application rate 5 g/ha): 20%; Oryza sativa (Efficacy in %) (Oryza sativa [13]): 10%; Zea mays (Efficacy in %) (Zea mays [14]; application rate 20 g/ha): 10%; Setaria viridis (Efficacy in %) (Setaria viridis [24]): 100%; Stellaria media (Efficacy in %) (Stellaria media [25]): 100%; Veronica persica (Efficacy in %) (Veronica persica [26]): 100%; Viola tricolor (Efficacy in %) (Viola tricolor [27]): 100%; Glycine max (Efficacy in %) (Glycine max [28]; application rate 20 g/ha): 10%; Oryza sativa (Efficacy in %) (Oryza sativa [29]): 20%; Zea mays (Efficacy in %) (Zea mays [30]; application rate 20 g/ha): 0%
2 | 20% | CC(Sc1cc(-n2c(=O)cc(C(F)(F)F)n(C)c2=O)c(F)cc1Cl)C(=O)NCC1(C)CCCO1 (centres unmarked) [I.1-224] | 100% | 100% | 100% | 100% | 100% | 100% | 80% | 100% | 100% | 100% | 100% | 100% | 100% | 90% | 100% | 100% | 100% | 100% | 100% | Alopecurus myosuroides (Efficacy in %) (Alopecurus myosuroides [2]): 80%; Oryza sativa (Efficacy in %) (Oryza sativa [13]): 10%; Zea mays (Efficacy in %) (Zea mays [14]; application rate 80 g/ha): 20%; Setaria viridis (Efficacy in %) (Setaria viridis [24]): 100%; Stellaria media (Efficacy in %) (Stellaria media [25]): 100%; Veronica persica (Efficacy in %) (Veronica persica [26]): 100%; Viola tricolor (Efficacy in %) (Viola tricolor [27]): 100%; Glycine max (Efficacy in %) (Glycine max [28]; application rate 20 g/ha): 0%; Oryza sativa (Efficacy in %) (Oryza sativa [29]): 0%; Zea mays (Efficacy in %) (Zea mays [30]; application rate 20 g/ha): 0%
3 | 0% | CC(Sc1cc(-n2c(=O)cc(C(F)(F)F)n(C)c2=O)c(F)cc1Cl)C(=O)OCC1CCOC1 (centres unmarked) [I.1-72] | 100% | 100% | 100% | 100% | 100% | 100% | 100% | 100% | 100% | 100% | 90% | 100% | 100% | 80% | 100% | 90% | 100% | 100% | 100% | Avena fatua (Efficacy in %) (Avena fatua [31]): 80%; Echinochloa crus-galli (Efficacy in %) (Echinochloa crus-galli [4]): 100%; Hordeum murinum (Efficacy in %) (Hordeum murinum [32]): 80%; Lolium rigidum (Efficacy in %) (Lolium rigidum [5]): 100%; Glycine max (Efficacy in %) (Glycine max [12]; application rate 20 g/ha): 10%; Zea mays (Efficacy in %) (Zea mays [14]; application rate 20 g/ha): 20%; Setaria viridis (Efficacy in %) (Setaria viridis [24]): 100%; Stellaria media (Efficacy in %) (Stellaria media [25]): 100%; Veronica persica (Efficacy in %) (Veronica persica [26]): 100%; Viola tricolor (Efficacy in %) (Viola tricolor [27]): 100%; Glycine max (Efficacy in %) (Glycine max [28]; application rate 80 g/ha): 20%; Zea mays (Efficacy in %) (Zea mays [30]; application rate 80 g/ha): 20%
